According to the supplement of paper PMC10307832:

What was measured:
Test in all cases: relative viability (nuclei count vs DMSO), 5 days (fraction); higher = more cells survive
[1] = compound: O=C(CCCCCCC(=O)Nc1ccccc1)NO [Vorinostat]
Procedure, shortened: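 Lung cancer cell lines received five library-drug doses (not always all listed) spaced by √10, pinned on vehicle-anchored 1536-well plates after an overnight stay at 37 °C. Five days later, with no medium change, nuclei were Hoechst-stained, imaged at 4× and counted with MetaXpress. Viability is treated-well nuclei relative to vehicle-well nuclei, as a median across plates. Passing plates had control CV below 25% and at least one doubling.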

[2] = compound: O=C(CCCCCCC(=O)Nc1ccccc1)NO [Vorinostat] + Nc1ncn([C@H]2C[C@H](O)[C@@H](CO)O2)c(=O)n1 [Decitabine] (partner 2 µM)
Procedure, shortened: (§1)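 One day after seeding in 1536-well plates, lung cancer cell lines were dosed by pin tool. Dosing was either single-drug or a fixed anchor-drug dose plus five library-drug doses (not always all listed) in √10 steps. After 5 days, nuclei were stained in one fix-and-stain step and counted on 4× images, and relative viability is the nuclei count of treated wells over that of vehicle wells, given as the median of duplicate plates.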

[3] = compound: O=C(CCCCCCC(=O)Nc1ccccc1)NO [Vorinostat] + COc1cccc2cc(-c3nc([C@H]4CC[C@H](C(=O)O)CC4)n4ncnc(N)c34)[nH]c12 [OSI-027] (partner 0.5 µM)
Procedure, shortened: as §1

[4] = compound: O=C(CCCCCCC(=O)Nc1ccccc1)NO [Vorinostat] + CC(=O)c1c(C)c2cnc(Nc3ccc(N4CCNCC4)cn3)nc2n(C2CCCC2)c1=O [Palbociclib] (partner 0.5 µM)
Procedure, shortened: as §1

[5] = compound: O=C(CCCCCCC(=O)Nc1ccccc1)NO [Vorinostat] + Cc1cc(Nc2cc(N3CCN(C)CC3)nc(Sc3ccc(NC(=O)C4CC4)cc3)n2)n[nH]1 [Tozasertib] (partner 0.1 µM)
Procedure, shortened: as §1

[6] = compound: O=C(CCCCCCC(=O)Nc1ccccc1)NO [Vorinostat] + CC(=O)Nc1cccc(-n2c(=O)n(C3CC3)c(=O)c3c(Nc4ccc(I)cc4F)n(C)c(=O)c(C)c32)c1 [Trametinib] (partner 0.02 µM)
Procedure, shortened: as §1

[7] = compound: O=C(CCCCCCC(=O)Nc1ccccc1)NO [Vorinostat] + NC(=O)Nc1cc(-c2cccc(F)c2)sc1C(=O)N[C@H]1CCCNC1 [AZD7762] (partner 0.2 µM)
Procedure, shortened: as §1

[8] = compound: O=C(CCCCCCC(=O)Nc1ccccc1)NO [Vorinostat] + O=C(c1cc(Cc2n[nH]c(=O)c3ccccc23)ccc1F)N1CCN(C(=O)C2CC2)CC1 [Olaparib] (partner 8 µM)
Procedure, shortened: as §1

[9] = compound: O=C(CCCCCCC(=O)Nc1ccccc1)NO [Vorinostat] + Nc1nc2[nH]cc(CCc3ccc(C(=O)N[C@@H](CCC(=O)O)C(=O)O)cc3)c2c(=O)[nH]1 [Pemetrexed] (partner 0.2 µM)
Procedure, shortened: as §1

[10] = compound: O=C(CCCCCCC(=O)Nc1ccccc1)NO [Vorinostat] + COc1cc2c(Oc3ccc(NC(=O)C4(C(=O)Nc5ccc(F)cc5)CC4)cc3F)ccnc2cc1OCCCN1CCOCC1 [Foretinib] (partner 0.25 µM)
Procedure, shortened: as §1

[11] = compound: O=C(CCCCCCC(=O)Nc1ccccc1)NO [Vorinostat] + N=C(N)NC(=N)NCCc1ccccc1 [Phenformin] (partner 250 µM)
Procedure, shortened: as §1

[12] = compound: O=C(CCCCCCC(=O)Nc1ccccc1)NO [Vorinostat] + Cc1nc(Nc2ncc(C(=O)Nc3c(C)cccc3Cl)s2)cc(N2CCN(CCO)CC2)n1 [Dasatinib] (partner 0.075 µM)
Procedure, shortened: as §1

[13] = compound: O=C(CCCCCCC(=O)Nc1ccccc1)NO [Vorinostat] + CCNC(=O)c1noc(-c2cc(C(C)C)c(O)cc2O)c1-c1ccc(CN2CCOCC2)cc1 [Luminespib] (partner 0.01 µM)
Procedure, shortened: as §1

Work on NCI-H1648 yielded a relative viability ([1]; 0.253 µM) of 0.815, a relative viability ([1]; 0.8 µM) of 0.725 and a relative viability ([1]; 1 µM, anchor plate) of 0.596. For the same cell line, the relative viability ([1]; 2.53 µM) was 0.252, the relative viability ([1]; 8 µM) was 0.209 and the relative viability ([2]; first compound 0.253 µM) was 0.414. It also gave a relative viability ([2]; first compound 0.8 µM) of 0.473, a relative viability ([2]; first compound 2.53 µM) of 0.215 and a relative viability ([2]; first compound 8 µM) of 0.22. The relative viability ([3]; first compound 0.253 µM) was 0.252, the relative viability ([3]; first compound 0.8 µM) was 0.267 and the relative viability ([3]; first compound 2.53 µM) was 0.28. It also gave a relative viability ([3]; first compound 8 µM) of 0.263, a relative viability ([4]; first compound 0.253 µM) of 0.278 and a relative viability ([4]; first compound 0.8 µM) of 0.239. It also gave a relative viability ([4]; first compound 2.53 µM) of 0.224, a relative viability ([4]; first compound 8 µM) of 0.213 and a relative viability ([5]; first compound 0.253 µM) of 0.457. For the same cell line, the relative viability ([5]; first compound 0.8 µM) was 0.319, the relative viability ([5]; first compound 2.53 µM) was 0.161 and the relative viability ([5]; first compound 8 µM) was 0.158. For the same cell line, the relative viability ([6]; first compound 0.253 µM) was 0.596, the relative viability ([6]; first compound 0.8 µM) was 0.494 and the relative viability ([6]; first compound 2.53 µM) was 0.191. The relative viability ([6]; first compound 8 µM) was 0.191, the relative viability ([7]; first compound 0.253 µM) was 0.51 and the relative viability ([7]; first compound 0.8 µM) was 0.496. The relative viability ([7]; first compound 2.53 µM) was 0.331, the relative viability ([7]; first compound 8 µM) was 0.212 and the relative viability ([8]; first compound 0.253 µM) was 1.13. It also gave a relative viability ([8]; first compound 0.8 µM) of 0.674, a relative viability ([8]; first compound 2.53 µM) of 0.212 and a relative viability ([8]; first compound 8 µM) of 0.201. For the same cell line, the relative viability ([9]; first compound 0.253 µM) was 0.598, the relative viability ([9]; first compound 0.8 µM) was 0.595 and the relative viability ([9]; first compound 2.53 µM) was 0.428. For the same cell line, the relative viability ([9]; first compound 8 µM) was 0.241.
SW 900 showed a relative viability ([1]; 0.253 µM) of 0.653, a relative viability ([1]; 0.8 µM) of 0.644 and a relative viability ([1]; 1 µM, anchor plate) of 0.576. It also gave a relative viability ([1]; 2.53 µM) of 0.391, a relative viability ([1]; 8 µM) of 0.128 and a relative viability ([2]; first compound 0.253 µM) of 0.34. The relative viability ([2]; first compound 0.8 µM) was 0.351, the relative viability ([2]; first compound 2.53 µM) was 0.23 and the relative viability ([2]; first compound 8 µM) was 0.159. The relative viability ([3]; first compound 0.253 µM) was 0.49, the relative viability ([3]; first compound 0.8 µM) was 0.472 and the relative viability ([3]; first compound 2.53 µM) was 0.227. The relative viability ([3]; first compound 8 µM) was 0.0866, the relative viability ([4]; first compound 0.253 µM) was 0.513 and the relative viability ([4]; first compound 0.8 µM) was 0.526. For the same cell line, the relative viability ([4]; first compound 2.53 µM) was 0.219, the relative viability ([4]; first compound 8 µM) was 0.136 and the relative viability ([10]; first compound 0.253 µM) was 0.925. For the same cell line, the relative viability ([10]; first compound 0.8 µM) was 0.927, the relative viability ([10]; first compound 2.53 µM) was 0.644 and the relative viability ([10]; first compound 8 µM) was 0.111. The relative viability ([5]; first compound 0.253 µM) was 0.584, the relative viability ([5]; first compound 0.8 µM) was 0.315 and the relative viability ([5]; first compound 2.53 µM) was 0.213. It also gave a relative viability ([5]; first compound 8 µM) of 0.113, a relative viability ([11]; first compound 0.253 µM) of 0.73 and a relative viability ([11]; first compound 0.8 µM) of 0.391. It also gave a relative viability ([11]; first compound 2.53 µM) of 0.322, a relative viability ([11]; first compound 8 µM) of 0.091 and a relative viability ([6]; first compound 0.253 µM) of 0.739. For the same cell line, the relative viability ([6]; first compound 0.8 µM) was 0.703, the relative viability ([6]; first compound 2.53 µM) was 0.249 and the relative viability ([6]; first compound 8 µM) was 0.129. It also gave a relative viability ([12]; first compound 0.253 µM) of 0.679, a relative viability ([12]; first compound 0.8 µM) of 0.739 and a relative viability ([12]; first compound 2.53 µM) of 0.249. The relative viability ([12]; first compound 8 µM) was 0.118, the relative viability ([7]; first compound 0.253 µM) was 0.606 and the relative viability ([7]; first compound 0.8 µM) was 0.418. For the same cell line, the relative viability ([7]; first compound 2.53 µM) was 0.229, the relative viability ([7]; first compound 8 µM) was 0.0892 and the relative viability ([13]; first compound 0.253 µM) was 0.172. It also gave a relative viability ([13]; first compound 0.8 µM) of 0.161, a relative viability ([13]; first compound 2.53 µM) of 0.16 and a relative viability ([13]; first compound 8 µM) of 0.133. The relative viability ([8]; first compound 0.253 µM) was 0.901, the relative viability ([8]; first compound 0.8 µM) was 0.589 and the relative viability ([8]; first compound 2.53 µM) was 0.192. It also gave a relative viability ([8]; first compound 8 µM) of 0.113, a relative viability ([9]; first compound 0.253 µM) of 0.502 and a relative viability ([9]; first compound 0.8 µM) of 0.483. For the same cell line, the relative viability ([9]; first compound 2.53 µM) was 0.308 and the relative viability ([9]; first compound 8 µM) was 0.147.
